Assay results taken from the Kinase Knowledgebase extract (Sharma et al. 2016).

target: CDK2 (human) (UniProt P24941); test: Enzyme Assay

| Structure (SMILES) | IC50 |
| --- | --- |
| O=C(Nc1ccc(-n2cncn2)c(F)c1)c1ccc(C(=O)Nc2ccccc2OCc2ccncc2)s1 | ≥ 40 µM |
| COc1ccccc1NC(=O)c1ccc(C(=O)Nc2ccc(-n3cncn3)cc2)s1 | ≥ 40 µM |
| O=C(NCCN1CCOCC1)c1ccc(C(=O)Nc2ccc(-n3cncn3)cc2)s1 | ≥ 40 µM |
| O=C(Nc1ccc(-n2cncn2)c(F)c1)c1ccc(C(=O)Nc2ccccc2OC2CCCCC2)s1 | ≥ 40 µM |
| O=C(Nc1ccc(-n2cncn2)cc1)c1ccc(C(=O)Nc2ccc3c(c2)OCO3)s1 | ≥ 40 µM |
| O=C(Nc1ccc(-n2cncn2)cc1)c1ccc(C(=O)Nc2cccc(-c3cnco3)c2)s1 | ≥ 40 µM |
| O=C(Nc1ccc(-n2cncn2)cc1)c1ccc(C(=O)Nc2cccc(O)c2)s1 | ≥ 40 µM |
| COc1cccc(C2CCN(C(=O)c3ccc(C(=O)Nc4ccc(-n5cncn5)cc4)s3)C2)c1 (stereo not drawn) | ≥ 40 µM |
| CN1CCN(C(=O)c2ccc(C(=O)Nc3ccc(-n4cncn4)cc3)s2)CC1 | ≥ 40 µM |
| O=C(NCc1ccc2c(c1)CCO2)c1ccc(C(=O)Nc2ccc(-n3cncn3)cc2)s1 | ≥ 40 µM |
| COc1ccc(NC(=O)c2ccc(C(=O)Nc3ccc(N4CCCCC4)cc3)s2)c(C)c1 | ≥ 40 µM |
| Cc1cc(CNC(=O)c2ccc(C(=O)Nc3ccc(-n4cncn4)cc3)s2)no1 | ≥ 40 µM |
| COc1ccc(C(=O)Nc2ccc(C(=O)Nc3ccc(-n4cncn4)cc3)o2)c(C)c1 | ≥ 40 µM |
| CNC(=O)c1ccc(C(=O)Nc2ccc(-n3cncn3)c(F)c2)o1 | ≥ 40 µM |
| O=C(Nc1ccc(-n2cncn2)c(F)c1)c1ccc(C(=O)Nc2ccccc2Oc2ccccc2)s1 | ≥ 40 µM |
| COc1ccc(NC(=O)c2ccc(C(=O)Nc3ccc4nc(C)ccc4c3)s2)c(C)c1 | ≥ 40 µM |
| COc1ccc(NCc2ccc(C(=O)Nc3ccc(-n4cncn4)cc3)o2)c(C)c1 | ≥ 40 µM |
| CN1CCC(N(C)C(=O)c2ccc(C(=O)Nc3ccc(-n4cncn4)c(F)c3)o2)CC1 | ≥ 40 µM |
| CN(C)CCNC(=O)c1ccc(C(=O)Nc2ccc(-n3cncn3)cc2)s1 | ≥ 40 µM |
| O=C(Nc1ccc(C(=O)Nc2ccc(-n3cncn3)cc2)o1)c1ccncc1 | ≥ 40 µM |
| O=C(Nc1ccc(-n2cncn2)c(F)c1)c1ccc(C(=O)Nc2ccccc2Oc2cccnc2)s1 | ≥ 40 µM |
| CC(C)NC(=O)c1ccc(C(=O)Nc2ccc(-n3cncn3)cc2)s1 | ≥ 40 µM |
| O=C(NCCc1ccccc1)c1ccc(C(=O)Nc2ccc(-n3cncn3)cc2)s1 | ≥ 40 µM |
| COc1ccc(C(=O)Nc2ccc(C(=O)N3CCC(c4ccncc4)C3)o2)c(C)c1 (stereo not drawn) | ≥ 40 µM |
| COC(=O)c1ccc(NC(=O)c2ccc(C(=O)Nc3ccc(OC)cc3C)s2)cc1 | ≥ 40 µM |

| Structure (SMILES) | IC50 |
| --- | --- |
| O=C(NC[C@@H]1CCCO1)c1ccc(C(=O)Nc2ccc(-n3cncn3)cc2)s1 | ≥ 40 µM |
| Cn1c(NC(=O)c2ccc(C(=O)Nc3ccc(-n4cncn4)cc3)s2)nc2ccccc21 | ≥ 40 µM |
| O=C(Nc1ccccc1)c1ccc(C(=O)Nc2ccc(-n3cncn3)cc2)s1 | ≥ 40 µM |
| Cn1cnc(CCNC(=O)c2ccc(C(=O)Nc3ccc(-n4cncn4)cc3)s2)c1 | ≥ 40 µM |
| CN1CCCC1CCNC(=O)c1ccc(C(=O)Nc2ccc(-n3cncn3)cc2)s1 (stereo not drawn) | ≥ 40 µM |
| COc1ccc(NC(=O)c2ccc(C(=O)Nc3ccc(C#N)cc3)s2)c(C)c1 | ≥ 40 µM |
| O=C(NCc1nc2ccccc2[nH]1)c1ccc(C(=O)Nc2ccc(-n3cncn3)cc2)s1 | ≥ 40 µM |
| CCCCN(C)C(=O)c1ccc(C(=O)Nc2ccc(-n3cncn3)cc2)s1 | ≥ 40 µM |
| C[C@@H](NC(=O)c1ccc(C(=O)Nc2ccc(-n3cncn3)cc2)s1)C1CCCCC1 | ≥ 40 µM |
| COc1ccc(NC(=O)c2ccc(C(=O)Nc3ccc(N4CCNCC4)cc3)s2)c(C)c1 | ≥ 40 µM |
| CCOc1ccccc1NC(=O)c1ccc(C(=O)Nc2ccc(-n3cncn3)c(F)c2)s1 | ≥ 40 µM |
| O=C(Nc1ccc(-n2cncn2)cc1)c1ccc(C(=O)Nc2ccc3ncsc3c2)s1 | ≥ 40 µM |
| COc1ccc(C(=O)Nc2ccc(C(=O)N3CCC(Oc4cnccn4)CC3)o2)cc1 | ≥ 40 µM |
| COc1ccc(NC(=O)c2ccc(C(=O)Nc3ccc(-c4c(C)noc4C)cc3)s2)c(C)c1 | ≥ 40 µM |
| COc1ccc(NC(=O)c2ccc(C(=O)Nc3ccc(-c4cnco4)cc3)s2)c(C)c1 | ≥ 40 µM |
| COc1ccc(NC(=O)c2ccc(C(=O)Nc3cccc(-c4cnco4)c3)s2)c(C)c1 | ≥ 40 µM |
| COc1ccc(NC(=O)c2ccc(C(=O)Nc3ccc(-n4cncn4)cc3)s2)cc1F | ≥ 40 µM |
| O=C(Nc1ccc(-n2cncn2)cc1)c1ccc(C(=O)Nc2ccc3c(c2)C(=O)OC3)s1 | ≥ 40 µM |
| COc1ccc(NC(=O)c2ccc(C(=O)Nc3ccc(CN)cc3)s2)c(C)c1 | ≥ 40 µM |
| CN(Cc1ccco1)C(=O)c1ccc(C(=O)Nc2ccc(-n3cncn3)cc2)s1 | ≥ 40 µM |
| O=C(Nc1ccc(-n2cncn2)cc1)c1ccc(C(=O)NC2Cc3ccccc3C2)s1 | ≥ 40 µM |
| Cc1cc(NC(=O)c2ccc(C(=O)Nc3ccc(-n4cncn4)cc3)s2)ccc1F | ≥ 40 µM |
| COc1ccc(NC(=O)c2ccc(C(=O)Nc3ccc(-c4csnn4)cc3)s2)c(C)c1 | ≥ 40 µM |
| COc1ccc(NC(=O)c2ccc(C(=O)Nc3ccc(N4CCOCC4)nc3)s2)c(C)c1 | ≥ 40 µM |
| COc1ccc(NC(=O)c2ccc(C(=O)Nc3ccc(-n4ccnc4)cc3)s2)c(C)c1 | ≥ 40 µM |

Continued, values first:

| IC50 | Structure (SMILES) |
| --- | --- |
| ≥ 40 µM | O=C(Nc1ccc(-n2cncn2)cc1)c1ccc(C(=O)N2CCCCC2)s1 |
| ≥ 40 µM | O=C(NCC1CCCCC1)c1ccc(C(=O)Nc2ccc(-n3cncn3)cc2)s1 |
| ≥ 40 µM | CC(CN(C)C)NC(=O)c1ccc(C(=O)Nc2ccc(-n3cncn3)cc2)s1 (stereo not drawn) |
| ≥ 40 µM | CN(C)CCNC(=O)c1ccc(C(=O)Nc2ccc(-n3cncn3)c(F)c2)o1 |
| ≥ 40 µM | O=C(NCCc1c[nH]cn1)c1ccc(C(=O)Nc2ccc(-n3cncn3)cc2)s1 |
| ≥ 40 µM | O=C(NCc1cccnc1)c1ccc(C(=O)Nc2ccc(-n3cncn3)cc2)s1 |
| ≥ 40 µM | COc1ccc(NC(=O)c2ccc(C(=O)Nc3ccc4nccnc4c3)s2)c(C)c1 |
| ≥ 40 µM | O=C(NCCN1CCCCC1)c1ccc(C(=O)Nc2ccc(-n3cncn3)cc2)s1 |
| ≥ 40 µM | CN(C)C(=O)c1ccc(C(=O)Nc2ccc(-n3cncn3)c(F)c2)o1 |
| 1 to 40 µM | O=C(Nc1ccccc1)c1ccc(C(=O)Nc2ccc(-n3cncn3)cc2)o1 |
| 1 to 40 µM | CNCc1ccc(NC(=O)c2ccc(C(=O)Nc3ccc(-n4cncn4)cc3)s2)c(C)c1 |
| ≤ 1 µM | Cc1cc(CN2CCOCC2)ccc1NC(=O)c1ccc(C(=O)Nc2ccc(-n3cncn3)cc2)s1 |
| 1 to 40 µM | COc1ccc(NC(=O)c2ccc(C(=O)Nc3ccc(-n4cncn4)cc3)s2)c(C(=O)O)c1 |
| ≥ 40 µM | O=C(Nc1ccc(-n2cncn2)cc1)c1ccc(C(=O)NC2CCC2)s1 |
| 1 to 40 µM | COc1ccc(Cl)cc1NC(=O)c1ccc(C(=O)Nc2ccc(-n3cncn3)cc2)s1 |
| 1 to 40 µM | O=C(Nc1ccc(-n2cncn2)cc1)c1ccc(C(=O)N[C@H]2CCc3ccccc32)s1 |
| 1 to 40 µM | O=C(Nc1ccc(-n2cncn2)c(F)c1)c1ccc(C(=O)N[C@H]2CC[C@H](O)CC2)o1 |
| 1 to 40 µM | O=C(Nc1ccc(-n2cncn2)cc1)c1ccc(C(=O)Nc2nc3c(s2)CCCC3)s1 |
| 1 to 40 µM | COc1ccc(NC(=O)c2ccc(C(=O)Nc3ccc(F)cc3-n3cncn3)s2)c(C)c1 |
| ≤ 1 µM | COc1ccc(C(=O)Nc2ccc(C(=O)Nc3ccc(-n4cncn4)cc3)s2)c(C)c1 |
| ≤ 1 µM | O=C(Nc1ccc(-n2cncn2)c(F)c1)c1ccc(C(=O)Nc2ccccc2F)s1 |
| 1 to 40 µM | O=C(Nc1ccncc1)c1ccc(C(=O)Nc2ccc(-n3cncn3)cc2)o1 |
| 1 to 40 µM | COc1ccc(N(C)C(=O)c2ccc(C(=O)Nc3ccc(-n4cncn4)cc3)s2)c(C)c1 |
| ≤ 1 µM | Cc1cc(N(C)CCN(C)C)ccc1NC(=O)c1ccc(C(=O)Nc2ccc(-n3cncn3)cc2)s1 |

| IC50 | Structure (SMILES) |
| --- | --- |
| ≤ 1 µM | COc1ccc(NC(=O)c2ccc(C(=O)Nc3ccc(-n4cncn4)c(F)c3)s2)c(C)c1 |
| ≤ 1 µM | Cc1ccccc1NC(=O)c1ccc(C(=O)Nc2ccc(-n3cncn3)cc2)o1 |
| ≤ 1 µM | Cc1cc(N[C@H]2CCNC2)ccc1NC(=O)c1ccc(C(=O)Nc2ccc(-n3cncn3)cc2)s1 |
| 1 to 40 µM | O=C(Nc1ccc(-n2cncn2)cc1)c1ccc(C(=O)N2CCc3ccccc3C2)s1 |
| 1 to 40 µM | COc1ccc(NC(=O)c2ccc(C(=O)Nc3ccc(-n4cncn4)cc3)s2)cc1Cl |
| ≤ 1 µM | Cc1cc(N2CCOCC2)ccc1NC(=O)c1ccc(C(=O)Nc2ccc(-n3cncn3)cc2)s1 |
| ≤ 1 µM | Cc1cc(Cn2ccnc2)ccc1NC(=O)c1ccc(C(=O)Nc2ccc(-n3cncn3)cc2)s1 |
| ≤ 1 µM | COc1ccc(NC(=O)c2ccc(C(=O)Nc3ccc(-n4cncn4)cc3)s2)c(C)c1 |
| ≤ 1 µM | C[C@H](NC(=O)c1ccc(C(=O)Nc2ccc(-n3cncn3)c(F)c2)o1)C1CCCCC1 |
| ≤ 1 µM | Cc1cc(OCCO)ccc1NC(=O)c1ccc(C(=O)Nc2ccc(-n3cncn3)cc2)s1 |
| ≤ 1 µM | COc1ccc(NC(=O)c2ccc(C(=O)Nc3ccc(-c4nc[nH]n4)c(F)c3)o2)c(C)c1 |
| 1 to 40 µM | Cn1nc(-c2ccccc2)cc1NC(=O)c1ccc(C(=O)Nc2ccc(-n3cncn3)cc2)s1 |
| 1 to 40 µM | COc1ccc(C(=O)Nc2ccc(C(=O)N3CCC(Oc4cnccn4)CC3)s2)c(C)c1 |
| 1 to 40 µM | O=C(Nc1ccc(-n2cncn2)cc1)c1ccc(C(=O)Nc2nc3ccccc3s2)s1 |
| ≤ 1 µM | Cc1cc(N[C@H]2CCNC2)ccc1NC(=O)c1ccc(C(=O)Nc2ccc(-n3cncn3)c(F)c2)s1 |
| ≤ 1 µM | O=C(Nc1ccc(-n2cncn2)c(F)c1)c1ccc(C(=O)NC2CCCCC2)o1 |
| 1 to 40 µM | O=C(Nc1ccc(-n2cncn2)c(F)c1)c1ccc(C(=O)Nc2ccccc2-c2ccccc2)s1 |
| ≤ 1 µM | Cc1cc(OCCN2CCN(C)CC2)ccc1NC(=O)c1ccc(C(=O)Nc2ccc(-n3cncn3)cc2)s1 |
| 1 to 40 µM | Cc1cc(CN(C)C)ccc1NC(=O)c1ccc(C(=O)Nc2ccc(-n3cncn3)c(F)c2)s1 |
| ≤ 1 µM | O=C(Nc1ccc(C(=O)Nc2ccc(-n3cncn3)cc2)s1)c1ccccc1 |
| ≤ 1 µM | COc1ccc(NC(=O)c2ccc(C(=O)Nc3ccc(-c4nnc[nH]4)cc3)s2)c(C)c1 |
| 1 to 40 µM | Cc1cc(NC(=O)c2ccc(C(=O)Nc3ccc(-n4cncn4)cc3)s2)n(C)n1 |
| 1 to 40 µM | COc1cccc(NC(=O)c2ccc(C(=O)Nc3ccc(-n4cncn4)cc3)s2)c1OC |
| 1 to 40 µM | CC(=O)N1CCC(NC(=O)c2ccc(C(=O)Nc3ccc(-n4cncn4)cc3)s2)CC1 |
